Key:
[1] = Solubility in buffer; type: physicochemical
Description: In some embodiments, buffered solutions containing relatively lower amounts of salts, particularly including phosphate salts, are added to the immunogenic composition, or other preserved multi-dose formulation, to improve the solubility of the octenidine. This is based on Applicants' unexpected discovery that octenidine is less soluble in routinely used phosphate buffered saline (PBS). […] As such, in some embodiments, multi-dose formulations including octenidine contain less phosphate than standard PBS. Accordingly, in some embodiments, the buffer may contain for 100 L about 5 g of NaH2PO4 and about 200 g of Sodium bicarbonate (instead of standard PBS, which contains about a 20:1 ratio of Na2HPO4 to KH2PO4).

[2] = test system: wound healing; details: cited from earlier work
[3] = cited from earlier work
[4] = test system: S. aureus, P. aeruginosa, C. albicans, A. brasiliensis; experiment: Preservative efficacy in TS6 oil-in-water emulsion vaccine, overall verdict; type: cell-based; details: 100 μg/ml alone; oily vaccine environment; previous experiment
Description: (§1) For each concentration of polyamide polymer, dilution neutralization was carried out by inoculating 10 mL of test product with 100 μL of each test strain. Countings were performed at Do, 6 h (bacteria only), 24 h (bacteria only), D7, D14 and D28. For each counting, 1 mL of the sample was neutralized in 9 mL of neutralizing solution (10 minutes), for S. aureus, a second 1:10 dilution in the same solution. Then 1 mL of the mixture was transferred in Petri dishes and covered with 15 mL of agar medium (Trypcase Soy Agar for bacteria and Sabouraud Dextrosed Agar for yeasts and molds). The countings were achieved after 24-48 hours incubation at 32.5° C.±2.5° C. for bacteria, and 48-72 hours at 22.5° C.[…] for yeasts and molds. The test micro-organisms included Staphylococcus aureus, Pseudomonas aeruginosa, Candida albicans and Aspergillus brasiliensis. Finally, the neutralization solution contained: Tween 80 (10%), lecithin (2%), saponin (2%), sodium thiosulfate (0.5%) and buffered solution chloride. The saponin was from the bark of Quillaja saponaria.
For each concentration of preservative (or preservative combination), dilution neutralization and other testing was carried out as disclosed in Example 1. The “TS6” formulation is an oil-in-water emulsion, described in U.S. Pat. No. 7,371,395 B2 (to Merial, Inc.; see especially Example 1). […]

[5] = test system: Aspergillus brasiliensis; experiment: Antimicrobial preservative efficacy test (dilution neutralization), preservative as WFI solution; type: cell-based
From the text: (§2) Preservatives are commonly used in multi-dose formulations, including animal vaccines, to prevent bacterial or fungal growth in field conditions and are employed to minimize contamination of the formulations during repeated (non-sterile) punctures into the vial. Preservatives must pass antimicrobial effectiveness testing (AET), as described in the US pharmacopeia. As disclosed herein, Applicants performed the antimicrobial tests according to United States Pharmacopeia (USP), British Pharmacopeia (BP), and European Pharmocopeia (EP). Four test organisms were used: Candida albicans, Pseudomonas aeruginosa, Staphylococcus aureus, and A. brasiliensis. And while thimerosal and formol continue to play an important role in veterinary vaccines, European authorities encourage the development of vaccines that are free from those compounds.
as §1
(§3) For each concentration of octenidine, dilution neutralization was carried out as disclosed in Example 1.

[6] = test system: Pseudomonas aeruginosa; experiment: as above; type: cell-based
From the text: as §2, §1, §3

[7] = test system: Candida albicans; experiment: as above; type: cell-based
From the text: as §2, §1, §3

[8] = test system: Staphylococcus aureus; experiment: as above; type: cell-based
From the text: as §2, §1, §3

[9] = test system: panel of pathogens; details: cited from earlier work

CCCCCCCCN=c1ccn(CCCCCCCCCCn2ccc(=NCCCCCCCC)cc2)cc1.Cl.Cl [Octenidine Dihydrochloride, Octenidine dihydrochloride]
solubility ([1]; routinely used phosphate buffered saline (PBS)): less soluble
solubility ([1]; sodium phosphate replaced with sodium bicarbonate): provided the required solubility
Cytotoxicity data: demonstrate any adverse effect to wound healing [2]: Cytotoxicity data failed to
LD50 on rat [3]: LD50 on rat = 10 mg/kg
preservative efficacy [4]: did not exhibit satisfactory preservative efficacy
log reduction ([5]; 0.001 mg/mL, 7 d): 0 log
viable count ([5]; 0.001 mg/mL, 7 d): 1.7 × 10^5
log reduction ([5]; 0.001 mg/mL, 14 d): 0.1 log
viable count ([5]; 0.001 mg/mL, 14 d): 1.4 × 10^5
log reduction ([5]; 0.001 mg/mL, 28 d): 0.3 log
viable count ([5]; 0.001 mg/mL, 28 d): 1.0 × 10^5
viable count ([5]; 0.001 mg/mL, T0): 2.4 × 10^5
log reduction ([5]; 0.01 mg/mL, 7 d): 0.7 log
viable count ([5]; 0.01 mg/mL, 7 d): 3.8 × 10^4
log reduction ([5]; 0.01 mg/mL, 14 d): 0.8 log
viable count ([5]; 0.01 mg/mL, 14 d): 3.2 × 10^4
log reduction ([5]; 0.01 mg/mL, 28 d): 0.8 log
viable count ([5]; 0.01 mg/mL, T0): 2.8 × 10^5
log reduction ([5]; 0.1 mg/mL, 7 d): 0.4 log
viable count ([5]; 0.1 mg/mL, 7 d): 7.5 × 10^4
log reduction ([5]; 0.1 mg/mL, 14 d): 1.3 log
viable count ([5]; 0.1 mg/mL, 14 d): 1.0 × 10^4
log reduction ([5]; 0.1 mg/mL, 28 d): 0.8 log
viable count ([5]; 0.1 mg/mL, 28 d): 2.8 × 10^4
viable count ([5]; 0.1 mg/mL, T0): 1.7 × 10^5
log reduction ([5]; 1 mg/mL, 7 d): 0.8 log
viable count ([5]; 1 mg/mL, 7 d): 2.9 × 10^4
log reduction ([5]; 1 mg/mL, 14 d): 1 log
viable count ([5]; 1 mg/mL, 14 d): 1.7 × 10^4
log reduction ([5]; 1 mg/mL, 28 d): 1.1 log
viable count ([5]; 1 mg/mL, 28 d): 1.4 × 10^4
viable count ([5]; 1 mg/mL, T0): 1.6 × 10^5
log reduction ([6]; 0.001 mg/mL, 6 h): 3 log
viable count ([6]; 0.001 mg/mL, 6 h): 1.0 × 10^3
log reduction ([6]; 0.001 mg/mL, 24 h): 3 log
viable count ([6]; 0.001 mg/mL, 24 h): 1.0 × 10^4
log reduction ([6]; 0.001 mg/mL, 7 d): 0 log
viable count ([6]; 0.001 mg/mL, 7 d): >3.3 × 10^6
log reduction ([6]; 0.001 mg/mL, 14 d): 0 log
viable count ([6]; 0.001 mg/mL, 14 d): >3.3 × 10^6
log reduction ([6]; 0.001 mg/mL, 28 d): 0 log
viable count ([6]; 0.001 mg/mL, 28 d): >3.3 × 10^6
viable count ([6]; 0.001 mg/mL, T0): 7.5 × 10^4
log reduction ([6]; 0.01 mg/mL, 6 h): >5.1 log
viable count ([6]; 0.01 mg/mL, 6 h): <10
log reduction ([6]; 0.01 mg/mL, 24 h): >5.1 log
viable count ([6]; 0.01 mg/mL, 24 h): <10
log reduction ([6]; 0.01 mg/mL, 7 d): 4.4 log
viable count ([6]; 0.01 mg/mL, 7 d): <10
log reduction ([6]; 0.01 mg/mL, 14 d): 4.4 log
viable count ([6]; 0.01 mg/mL, 14 d): <10
log reduction ([6]; 0.01 mg/mL, 28 d): 4.4 log
viable count ([6]; 0.01 mg/mL, 28 d): <10
viable count ([6]; 0.01 mg/mL, T0): <10
log reduction ([6]; 0.1 mg/mL, 6 h): >5.1 log
viable count ([6]; 0.1 mg/mL, 6 h): <10
log reduction ([6]; 0.1 mg/mL, 24 h): >5.1 log
viable count ([6]; 0.1 mg/mL, 24 h): <10
log reduction ([6]; 0.1 mg/mL, 7 d): 4.4 log
viable count ([6]; 0.1 mg/mL, 7 d): 50
log reduction ([6]; 0.1 mg/mL, 14 d): >5.1 log
viable count ([6]; 0.1 mg/mL, 14 d): <10
log reduction ([6]; 0.1 mg/mL, 28 d): >5.1 log
viable count ([6]; 0.1 mg/mL, 28 d): <10
viable count ([6]; 0.1 mg/mL, T0): <10
log reduction ([6]; 1 mg/mL, 6 h): >5.1 log
viable count ([6]; 1 mg/mL, 6 h): <10
log reduction ([6]; 1 mg/mL, 24 h): >5.1 log
viable count ([6]; 1 mg/mL, 24 h): <10
log reduction ([6]; 1 mg/mL, 7 d): >5.1 log
viable count ([6]; 1 mg/mL, 7 d): <10
log reduction ([6]; 1 mg/mL, 14 d): >5.1 log
viable count ([6]; 1 mg/mL, 14 d): <10
log reduction ([6]; 1 mg/mL, 28 d): >5.1 log
viable count ([6]; 1 mg/mL, 28 d): <10
viable count ([6]; 1 mg/mL, T0): <10
log reduction ([7]; 0.001 mg/mL, 7 d): 4 log
viable count ([7]; 0.001 mg/mL, 7 d): 20
log reduction ([7]; 0.001 mg/mL, 14 d): 4.3 log
viable count ([7]; 0.001 mg/mL, 14 d): 10
log reduction ([7]; 0.001 mg/mL, 28 d): >4.3 log
viable count ([7]; 0.001 mg/mL, 28 d): <10
viable count ([7]; 0.001 mg/mL, T0): 1.7 × 10^5
log reduction ([7]; 0.01 mg/mL, 7 d): >4.3 log
viable count ([7]; 0.01 mg/mL, 7 d): <10
log reduction ([7]; 0.01 mg/mL, 14 d): >4.3 log
viable count ([7]; 0.01 mg/mL, 14 d): <10
log reduction ([7]; 0.01 mg/mL, 28 d): >4.3 log
viable count ([7]; 0.01 mg/mL, 28 d): <10
viable count ([7]; 0.01 mg/mL, T0): 2 × 10^3
log reduction ([7]; 0.1 mg/mL, 7 d): >4.3 log
viable count ([7]; 0.1 mg/mL, 7 d): <10
log reduction ([7]; 0.1 mg/mL, 14 d): >4.3 log
viable count ([7]; 0.1 mg/mL, 14 d): <10
log reduction ([7]; 0.1 mg/mL, 28 d): >4.3 log
viable count ([7]; 0.1 mg/mL, 28 d): <10
viable count ([7]; 0.1 mg/mL, T0): <10
log reduction ([7]; 1 mg/mL, 7 d): >4.3 log
viable count ([7]; 1 mg/mL, 7 d): <10
log reduction ([7]; 1 mg/mL, 14 d): >4.3 log
viable count ([7]; 1 mg/mL, 14 d): <10
log reduction ([7]; 1 mg/mL, 28 d): >4.3 log
viable count ([7]; 1 mg/mL, 28 d): <10
viable count ([7]; 1 mg/mL, T0): <10
log reduction ([8]; 0.001 mg/mL, 6 h): 3.8 log
viable count ([8]; 0.001 mg/mL, 6 h): 1.6 × 10^2
log reduction ([8]; 0.001 mg/mL, 24 h): >5 log
viable count ([8]; 0.001 mg/mL, 24 h): <10
log reduction ([8]; 0.001 mg/mL, 7 d): 3.7 log
viable count ([8]; 0.001 mg/mL, 7 d): 2 × 10^2
log reduction ([8]; 0.001 mg/mL, 14 d): 3.9 log
viable count ([8]; 0.001 mg/mL, 14 d): 1.4 × 10^2
log reduction ([8]; 0.001 mg/mL, 28 d): 4.4 log
viable count ([8]; 0.001 mg/mL, 28 d): 40
viable count ([8]; 0.001 mg/mL, T0): 1.6 × 10^5
log reduction ([8]; 0.01 mg/mL, 6 h): >5 log
viable count ([8]; 0.01 mg/mL, 6 h): <10
log reduction ([8]; 0.01 mg/mL, 24 h): >5 log
viable count ([8]; 0.01 mg/mL, 24 h): <10
log reduction ([8]; 0.01 mg/mL, 7 d): >5 log
viable count ([8]; 0.01 mg/mL, 7 d): <10
log reduction ([8]; 0.01 mg/mL, 14 d): >5 log
viable count ([8]; 0.01 mg/mL, 14 d): <10
log reduction ([8]; 0.01 mg/mL, 28 d): >5 log
viable count ([8]; 0.01 mg/mL, 28 d): <10
viable count ([8]; 0.01 mg/mL, T0): 10
log reduction ([8]; 0.1 mg/mL, 6 h): >5 log
viable count ([8]; 0.1 mg/mL, 6 h): <10^2
log reduction ([8]; 0.1 mg/mL, 24 h): >5 log
viable count ([8]; 0.1 mg/mL, 24 h): <10^2
log reduction ([8]; 0.1 mg/mL, 7 d): >5 log
viable count ([8]; 0.1 mg/mL, 7 d): <10^2
log reduction ([8]; 0.1 mg/mL, 14 d): >5 log
viable count ([8]; 0.1 mg/mL, 14 d): <10^2
log reduction ([8]; 0.1 mg/mL, 28 d): >5 log
viable count ([8]; 0.1 mg/mL, 28 d): <10^2
viable count ([8]; 0.1 mg/mL, T0): <10
log reduction ([8]; 1 mg/mL, 6 h): >4 log
viable count ([8]; 1 mg/mL, 6 h): <10^2
log reduction ([8]; 1 mg/mL, 24 h): >4 log
viable count ([8]; 1 mg/mL, 24 h): <10^2
log reduction ([8]; 1 mg/mL, 7 d): >4 log
viable count ([8]; 1 mg/mL, 7 d): <10^2
log reduction ([8]; 1 mg/mL, 14 d): >4 log
viable count ([8]; 1 mg/mL, 14 d): <10^2
log reduction ([8]; 1 mg/mL, 28 d): >4 log
viable count ([8]; 1 mg/mL, 28 d): <10^2
viable count ([8]; 1 mg/mL, T0): <10^2
Efficacy: spectrum [9]: Broad spectrum
MIC [9]: MIC ≤1 μg/ml

— patent US10583154B2, “Multi-dose compositions containing an antimicrobial polyamide or octenidine preservative” (priority 2016, dated 2020)
